Source: paper PMC3742231 (International Journal of Molecular Sciences, 2013)
Like-named read-outs stand apart in the source and are kept apart here.

Legend:
[1] = Overall safety in the three clinical studies; type: in vivo, human; details: healthy postmenopausal women, with and without ospemifene
Source text: All experiments with human subjects were based on voluntary informed consent and the clinical study protocols had appropriate ethical and regulatory approval. Subjects were asked to immediately report any significant adverse events (AEs) that occurred during the study; minor AEs were reported at clinic visits. AEs were coded and classified according to the Medical Dictionary for Regulatory Activities.

[2] = target: CYP2E1 (Homo sapiens, UniProt P05181); test: N-in-one CYP inhibition assay in human liver microsomes
Protocol: (§1) Human liver microsomes were prepared and pooled from ten human livers (HL20–24,28–32) as previously described. Human liver samples were obtained from the University Hospital of Oulu as surplus tissue from cadaver kidney transplant donors. The collection of surplus tissue was approved by the Ethics Committee of the Medical Faculty of the University of Oulu, Finland. All donors were Caucasians ranging in age from 21 to 62 years; four were female and six were male. Detailed information on each donor has been published previously. Protein concentrations were measured using the Bradford method.
(§2) In vitro inhibition of CYP isoforms was first assessed using the N-in-one approach (also called the cocktail approach). CYP-selective substrates and reactions are listed in Table 1; concentrations were roughly at or below the respective Michaelis-Menten coefficients. […] A Micromass LCT time-of-flight high-resolution mass spectrometer (Micromass Ltd., Manchester, UK) equipped with a Z-spray electrospray ionization source was used for the monitoring of CYP-selective reactions. Integrated mass chromatogram peak areas were normalized versus internal standards before comparing metabolites in different preparations. More details of the assay are available in previous publications.

[3] = target: T1, CYP2C8 (Homo sapiens, UniProt P10632); test: N-in-one CYP inhibition assay in human liver microsomes; type of inhibition
T1 sequence (P10632 1-490): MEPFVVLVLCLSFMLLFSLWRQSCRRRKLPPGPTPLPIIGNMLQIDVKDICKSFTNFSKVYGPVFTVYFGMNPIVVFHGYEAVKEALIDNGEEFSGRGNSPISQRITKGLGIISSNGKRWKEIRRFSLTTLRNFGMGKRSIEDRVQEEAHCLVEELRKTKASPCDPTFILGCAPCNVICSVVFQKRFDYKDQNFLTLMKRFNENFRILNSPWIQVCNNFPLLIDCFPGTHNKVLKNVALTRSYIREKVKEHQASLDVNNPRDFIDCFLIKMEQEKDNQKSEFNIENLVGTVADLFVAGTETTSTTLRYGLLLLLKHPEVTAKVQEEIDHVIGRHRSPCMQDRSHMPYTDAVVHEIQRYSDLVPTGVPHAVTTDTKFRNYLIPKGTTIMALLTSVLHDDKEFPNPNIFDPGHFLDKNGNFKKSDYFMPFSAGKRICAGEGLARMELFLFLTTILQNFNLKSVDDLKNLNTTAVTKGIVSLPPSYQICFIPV
Protocol: as §1, §2
(§3) Dixon, Lineweaver-Burk, Hanes, and Hofstee plots were used for the analysis of the type of inhibition.

[4] = target: CYP2D6 (Homo sapiens, UniProt P10635); test: as above
Protocol: as §1, §2, §3

[5] = cited from earlier work
[6] = target: T2, CYP1A2 (Homo sapiens, UniProt P05177); test: biochemical
T2 sequence (P05177 1-516): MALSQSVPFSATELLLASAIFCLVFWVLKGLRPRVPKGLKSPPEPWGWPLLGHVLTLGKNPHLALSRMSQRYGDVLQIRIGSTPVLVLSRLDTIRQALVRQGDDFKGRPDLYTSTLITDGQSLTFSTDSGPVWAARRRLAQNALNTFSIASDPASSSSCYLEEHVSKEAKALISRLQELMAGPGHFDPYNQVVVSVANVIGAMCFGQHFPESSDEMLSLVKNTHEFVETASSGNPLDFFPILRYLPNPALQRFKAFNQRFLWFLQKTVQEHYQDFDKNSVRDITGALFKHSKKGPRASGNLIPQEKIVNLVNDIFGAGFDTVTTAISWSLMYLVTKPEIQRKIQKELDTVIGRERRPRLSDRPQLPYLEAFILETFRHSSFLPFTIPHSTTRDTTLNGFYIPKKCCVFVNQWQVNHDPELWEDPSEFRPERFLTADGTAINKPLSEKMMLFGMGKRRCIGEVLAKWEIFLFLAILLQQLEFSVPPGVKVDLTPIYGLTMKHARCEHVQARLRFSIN
Protocol: as §1, §2

[7] = target: CYP3A4 (Homo sapiens, UniProt P08684); test: biochemical; details: human liver microsomes
Protocol: as §1, §2

[8] = ref data on file, cited from earlier work
[9] = system: CYP2C9; details: 0.2, 2 and 20 μM for 48 h
Protocol: (§4) Freshly isolated human hepatocytes were obtained from the UK Human Tissue Bank (Leicester, UK).
(§5) Omeprazole (CYP1A2 inducer; 30 μM), phenobarbital (CYP2B6 inducer; 1 mM) and rifampicin (CYP2C9, CYP2C19, and CYP3A4 inducer; 50 μM) dissolved in dimethyl sulfoxide (0.5% v/v final), served as reference inducers.

[10] = system: CYP1A2; details: 0.2, 2 and 20 μM for 48 h
Protocol: as §4, §5

[11] = system: CYP2B6; details: 20 μM, 48 h
Protocol: as §4, §5

[12] = system: CYP2C19; details: 0.2, 2 and 20 μM for 48 h
Protocol: as §4, §5

[13] = system: CYP enzyme activities; details: cultured human hepatocytes
Protocol: as §4, §5

[14] = system: CYP3A4; details: 20 μM, 48 h
Protocol: as §4, §5

[15] = steady state, converted from ng/mL

Sequence of CYP3A4 (Homo sapiens, UniProt P08684) (P08684 whole entry): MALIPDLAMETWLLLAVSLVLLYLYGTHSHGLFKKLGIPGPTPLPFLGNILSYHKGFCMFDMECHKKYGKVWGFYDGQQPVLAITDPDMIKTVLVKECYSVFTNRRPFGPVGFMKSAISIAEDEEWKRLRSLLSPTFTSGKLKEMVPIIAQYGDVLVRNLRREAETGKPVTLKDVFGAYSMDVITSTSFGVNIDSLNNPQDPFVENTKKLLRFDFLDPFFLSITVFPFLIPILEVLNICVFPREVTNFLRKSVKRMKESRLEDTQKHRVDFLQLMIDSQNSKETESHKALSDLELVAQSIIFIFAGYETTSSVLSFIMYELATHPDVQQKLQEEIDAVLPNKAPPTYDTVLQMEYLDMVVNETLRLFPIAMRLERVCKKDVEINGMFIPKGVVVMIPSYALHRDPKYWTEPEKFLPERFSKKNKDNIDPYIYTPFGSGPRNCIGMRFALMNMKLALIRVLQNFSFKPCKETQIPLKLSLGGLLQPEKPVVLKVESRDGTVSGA
Sequence of CYP2D6 (P10635 whole entry): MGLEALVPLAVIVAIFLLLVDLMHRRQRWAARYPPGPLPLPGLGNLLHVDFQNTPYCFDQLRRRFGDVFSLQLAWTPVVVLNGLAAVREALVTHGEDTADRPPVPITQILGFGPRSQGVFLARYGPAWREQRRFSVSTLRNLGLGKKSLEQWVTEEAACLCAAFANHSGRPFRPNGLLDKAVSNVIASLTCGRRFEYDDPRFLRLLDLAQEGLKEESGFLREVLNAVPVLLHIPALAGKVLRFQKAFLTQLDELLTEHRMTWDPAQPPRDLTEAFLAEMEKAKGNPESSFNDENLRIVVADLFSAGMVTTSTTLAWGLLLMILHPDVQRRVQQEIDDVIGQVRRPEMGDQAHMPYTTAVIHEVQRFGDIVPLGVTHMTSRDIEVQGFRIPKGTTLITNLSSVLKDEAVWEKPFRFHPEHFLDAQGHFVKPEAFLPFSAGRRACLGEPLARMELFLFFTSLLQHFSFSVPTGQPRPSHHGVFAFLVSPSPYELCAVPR
Sequence of CYP2E1 (P05181 whole entry): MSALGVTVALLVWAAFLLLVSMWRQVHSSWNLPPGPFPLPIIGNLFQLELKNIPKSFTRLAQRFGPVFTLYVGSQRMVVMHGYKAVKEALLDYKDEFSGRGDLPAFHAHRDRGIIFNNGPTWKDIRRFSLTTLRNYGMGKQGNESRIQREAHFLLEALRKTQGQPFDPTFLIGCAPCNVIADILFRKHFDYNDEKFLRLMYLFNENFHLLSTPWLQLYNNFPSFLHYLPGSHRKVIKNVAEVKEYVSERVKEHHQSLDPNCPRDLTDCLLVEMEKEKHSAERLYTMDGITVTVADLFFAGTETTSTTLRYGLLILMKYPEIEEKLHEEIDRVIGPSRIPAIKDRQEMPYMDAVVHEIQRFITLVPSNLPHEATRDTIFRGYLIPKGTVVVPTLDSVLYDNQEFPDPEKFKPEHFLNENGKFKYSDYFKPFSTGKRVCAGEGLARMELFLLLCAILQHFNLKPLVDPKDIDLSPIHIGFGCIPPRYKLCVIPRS

OCCOc1ccc(/C(=C(/CCCl)c2ccccc2)c2ccccc2)cc1 [Ospemifene]
Tolerability [1]: well tolerated
IC50 [2]: > 100 µM
IC50 [3]: 36.4 µM
Type of inhibition ([3]; results not shown): likely competitive
IC50 [4]: 48.7 µM
Type of inhibition ([4]; results not shown): competitive
average plasma half-life ([5]; introduction, no reference given): about 20 h
Cav at steady state [5, 15]: ~600 nM
Cmin at steady state [5, 15]: ~250 nM
Cmax ([5]; steady state, converted from ng/mL, read-out: mean Cmax at steady state): ~2000 nM
Cav at steady state ([5]; steady state): 227 ng/mL
Cmin at steady state ([5]; steady state): 94 ng/mL
mean Cmax at steady state ([5]; steady state): 785 ng/mL
IC50 [6]: > 100 µM
IC50 ([7]; IC50, Midazolam 1′-hydroxylation, probe 0.4 μM): > 100 µM
IC50 ([7]; IC50, Omeprazole 3-hydroxylation, probe 2 μM): 37.9 µM
IC50 ([7]; IC50, Omeprazole sulfoxidation, probe 2 μM): > 100 µM
IC50 ([7]; IC50, Testosterone 6β-hydroxylation, probe 1 μM): > 100 µM
Change of serum concentrations of ospemifene ([8]; fluconazole pretreatment): increased
Change of serum concentrations of ospemifene ([8]; ketoconazole pretreatment): increased
Change of serum concentrations of ospemifene ([8]; omeprazole pretreatment): minimally changed
Change of serum concentrations of ospemifene ([8]; rifampicin pretreatment): reduced
Change in CYP2C9 activity [9]: did not cause any relevant changes
Change in CYP1A2 activity [10]: did not cause any relevant changes
Induction of CYP2B6 activity [11]: approximately two-fold
Change in CYP2C19 activity [12]: did not cause any relevant changes
Induction of CYPs [13]: ≤ 2.4 fold
Induction of CYP3A4 activity [14]: approximately two-fold
